Assay results as given in patent publication US12624034B2, “Non-covalent modifiers of AKT1 and uses thereof” (Terremoto Biosciences, Inc., priority 2023, dated 2026).
Read-outs that look alike come from different tables or passages of the source.

Assays:
[1] = biological target: T1, AKT1 WT (Homo sapiens, UniProt P31749); test: Live cell AKT1 WT target engagement by NanoBRET competitive probe displacement in HEK293 cells; type: binding; details: 2 h at 37° C., read-out: AKT1 WT IC50
T1 construct: expressed in transfected cells; host or cells: HEK293

[2] = biological target: T2, AKT2 (Homo sapiens, UniProt P31751); test: Live cell AKT2 target engagement by NanoBRET competitive probe displacement in HEK293 cells; type: binding; details: 2 h at 37° C., read-out: AKT2 IC50
T2 construct: expressed in transfected cells; host or cells: HEK293

[3] = NanoBRET live cell target engagement, HEK293 cells
[4] = NanoBRET competitive probe displacement, live HEK293 cells

T1 sequence (P31749 whole entry): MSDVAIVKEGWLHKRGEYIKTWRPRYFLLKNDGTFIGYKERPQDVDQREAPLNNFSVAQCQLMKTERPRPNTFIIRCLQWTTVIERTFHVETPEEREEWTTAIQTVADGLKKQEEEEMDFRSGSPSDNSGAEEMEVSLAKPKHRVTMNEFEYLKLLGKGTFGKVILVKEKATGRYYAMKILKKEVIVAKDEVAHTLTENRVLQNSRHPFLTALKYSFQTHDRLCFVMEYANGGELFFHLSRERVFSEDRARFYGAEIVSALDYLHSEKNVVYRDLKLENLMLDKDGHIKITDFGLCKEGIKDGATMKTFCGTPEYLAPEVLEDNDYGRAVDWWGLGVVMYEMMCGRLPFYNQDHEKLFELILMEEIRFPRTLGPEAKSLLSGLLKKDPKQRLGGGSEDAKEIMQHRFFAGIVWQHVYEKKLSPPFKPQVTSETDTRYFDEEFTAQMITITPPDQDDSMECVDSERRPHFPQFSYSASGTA
T2 sequence (P31751 whole entry): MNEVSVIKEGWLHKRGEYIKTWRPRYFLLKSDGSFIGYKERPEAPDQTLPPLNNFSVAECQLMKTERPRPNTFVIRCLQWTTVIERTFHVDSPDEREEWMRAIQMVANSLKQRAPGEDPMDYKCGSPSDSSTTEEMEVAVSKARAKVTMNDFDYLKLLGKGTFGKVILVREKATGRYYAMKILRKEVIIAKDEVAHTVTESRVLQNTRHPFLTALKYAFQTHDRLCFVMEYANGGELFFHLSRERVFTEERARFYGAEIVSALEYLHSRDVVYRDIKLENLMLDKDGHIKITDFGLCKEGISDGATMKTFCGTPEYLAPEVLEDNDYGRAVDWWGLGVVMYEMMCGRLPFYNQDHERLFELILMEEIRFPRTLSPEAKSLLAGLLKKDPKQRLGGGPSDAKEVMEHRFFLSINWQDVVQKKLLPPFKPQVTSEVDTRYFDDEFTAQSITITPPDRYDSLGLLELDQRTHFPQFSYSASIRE

Row | SMILES | IC50 [1, 3] | IC50 [2, 3] | IC50 [1, 4] | IC50 [2, 4]
1 | Cc1ccc(C(=O)N[C@H]2CCc3cc(-n4c(-c5cccnc5N)nc5ccc(C#Cc6ncco6)nc54)ccc32)cn1 [Compound 341] | 0.391 µM | 2.85 µM |  | 
2 | Cc1ncccc1S(=O)(=O)N[C@H]1CCc2cc(-n3c(-c4cccnc4N)nc4ccc(-n5cccn5)nc43)ccc21 [Compound 139] | 0.0896 µM | 5.85 µM |  | 
3 | Cc1cc(C(F)F)ncc1C(=O)N[C@H]1CCc2cc(-n3c(-c4cccnc4N)nc4ccc(-n5nccn5)nc43)ccc21 [Compound 397] |  |  | 0.0165 µM | 1.44 µM
4 | Cn1cc(Cc2nncn2[C@H]2CCc3cc(-n4c(-c5cccnc5N)nc5ccc(-n6cccn6)nc54)ccc32)cn1 [Compound 228] | 0.586 µM | 2.03 µM |  | 
5 | Nc1ncccc1-c1nc2ccc(-n3cccn3)nc2n1-c1ccc2c(c1)CC[C@@H]2NC1CCN(c2cccnc2)C1 (some centres unmarked) [Compound 471] |  |  | 0.039 µM | 1.04 µM
6 | Nc1ncccc1-c1nc2ccc(-n3cccn3)nc2n1-c1ccc2c(c1)CC[C@@H]2NC(=O)c1nccnc1C(F)F [Compound 119] | 0.0908 µM | 3.16 µM |  | 
7 | Cc1cc(C(=O)N[C@H]2CCc3cc(-n4c(-c5cccnc5N)nc5ccc(-n6nccn6)nc54)ccc32)cnc1C(F)F [Compound 102] | 0.0315 µM | 0.836 µM |  | 
8 | Nc1ncccc1-c1nc2ccc(-n3nccn3)nc2n1-c1ccc2c(c1)CC[C@@H]2NC(=O)c1cc(F)c2[nH]ncc2c1 [Compound 383] | 0.0128 µM | 0.214 µM |  | 
9 | Nc1ncccc1-c1nc2ccc(-n3ccc(NC4CC4)n3)nc2n1-c1ccc2c(c1)CC[C@@H]2NC1CCN(C(=O)C2CC2)CC1 [Compound 599] |  |  | 0.0254 µM | 1.28 µM
10 | Cc1ccc(C(=O)N[C@H]2CCc3cc(-n4c(-c5cccnc5N)nc5ccc(C#CC6CC6)nc54)ccc32)cn1 [Compound 435] |  |  | 0.0196 µM | 1.39 µM
11 | COc1ccn(-c2ccc3nc(-c4cccnc4N)n(-c4ccc5c(c4)CC[C@@H]5NC4CCN(C(=O)C5CC5)CC4F)c3n2)n1 (some centres unmarked) [Compound 515] |  |  | 0.0121 µM | 0.452 µM
12 | Nc1ncccc1-c1nc2ccc(-n3cccn3)nc2n1-c1ccc2c(c1)CC[C@@H]2NC(=O)c1cc(F)c(F)c(F)c1 [Compound 343] | 0.0166 µM | 0.24 µM |  | 
13 | Nc1ncccc1-c1nc2ccc(C#C[C@@H]3CCO3)nc2n1-c1ccc2c(c1)CC[C@@H]2NC(=O)c1ccc(C(F)F)nc1 [Compound 454] |  |  | 0.0375 µM | > 10 µM
14 | Cc1cc2ncn([C@H]3CCc4cc(-n5c(-c6cccnc6N)nc6ccc(-n7cccn7)nc65)ccc43)c(=O)c2cn1 [Compound 91, (S)-3-(5-(2-(2-aminopyridin-3-yl)-5-(1H-pyrazol-1-yl)-3H-imidazo[4,5-b]pyridin-3-yl)-2,3-dihydro-1H-inden-1-yl)-7-methylpyrido[4,3-d]pyrimidin-4(3H)-one] | 0.198 µM | 0.763 µM |  | 
15 | Nc1ncccc1-c1nc2ccc(-n3cccn3)nc2n1-c1ccc2c(c1)CC[C@@H]2NC1CCc2cnccc2C1 (single isomer, unassigned) [Compound 463] |  |  | 0.027 µM | 1.08 µM
16 | Cc1nnn([C@H]2CCc3cc(-n4c(-c5cccnc5N)nc5ccc(-n6cccn6)nc54)ccc32)c1C [Compound 249, (S)-3-(3-(1-(4,5-dimethyl-1H-1,2,3-triazol-1-yl)-2,3-dihydro-1H-inden-5-yl)-5-(1H-pyrazol-1-yl)-3H-imidazo[4,5-b]pyridin-2-yl)pyridin-2-amine] | 0.0218 µM | 0.368 µM |  | 
17 | Cn1nccc1C(=O)N[C@H]1CCc2cc(-n3c(-c4cccnc4N)nc4ccc(-n5cccn5)nc43)ccc21 [Compound 144] | 0.0436 µM | 0.52 µM |  | 

Row | SMILES | IC50 [1, 3] | IC50 [2, 3] | IC50 [1, 4] | IC50 [2, 4]
18 | Nc1ncccc1-c1nc2ccc(-n3cccn3)nc2n1-c1ccc2c(c1)CC[C@@H]2NC1CCN(C(=O)[C@H]2CCO2)CC1 [Compound 425] |  |  | 0.109 µM | 3.09 µM
19 | Nc1ncccc1-c1nc2ccc(-n3cccn3)nc2n1-c1ccc2c(c1)CC[C@@H]2NC1CCc2ccncc21 (single isomer, unassigned) [Example 496, (R*)—N—((S)-5-(2-(2-aminopyridin-3-yl)-5-(1H-pyrazol-1-yl)-3H-imidazo[4,5-b]pyridin-3-yl)-2,3-dihydro-1H-inden-1-yl)-6,7-dihydro-5H-cyclopenta[c]pyridin-7-amine] |  |  | 0.0282 µM | 1.07 µM
20 | COC1CCN(c2ccn(-c3ccc4nc(-c5cccnc5N)n(-c5ccc6c(c5)CC[C@@H]6NC5CCN(C(=O)C6CC6)CC5)c4n3)n2)CC1 [Compound 564] |  |  | 0.00228 µM | 0.0844 µM
21 | Nc1ncccc1-c1nc2ccc(-n3ccc(F)n3)nc2n1-c1ccc2c(c1)CC[C@@H]2NC(=O)c1ccc(F)c(F)c1 [Compound 347] | 0.0237 µM | 0.824 µM |  | 
22 | Nc1ncccc1-c1nc2ccc(-n3nccn3)nc2n1-c1ccc2c(c1)CC[C@@H]2NC(=O)c1cnns1 [Compound 436] |  |  | 0.04 µM | 4.66 µM
23 | CNS(=O)(=O)c1ccc(C(=O)N[C@H]2CCc3cc(-n4c(-c5cccnc5N)nc5ccc(-n6cccn6)nc54)ccc32)cc1 [Compound 308] | 0.0151 µM | 0.296 µM |  | 
24 | Nc1ncccc1-c1nc2ccc(-n3cccn3)nc2n1-c1ccc2c(c1)CC[C@@H]2NC(=O)N1CCOCC1 [Compound 27, (S)—N-(5-(2-(2-aminopyridin-3-yl)-5-(1H-pyrazol-1-yl)-3H-imidazo[4,5-b]pyridin-3-yl)-2,3-dihydro-1H-inden-1-yl)morpholine-4-carboxamide] | > 1 µM | > 10 µM |  | 
25 | Nc1ncccc1-c1nc2ccc(C#CC3COC3)nc2n1-c1ccc2c(c1)CC[C@@H]2NC(=O)c1ccc(C(F)F)nc1 [Compound 408] |  |  | 0.0911 µM | 2.3 µM
26 | COc1cncc(C(=O)N[C@H]2CCc3cc(-n4c(-c5cccnc5N)nc5ccc(-n6cccn6)nc54)ccc32)n1 [Compound 348] | 0.0582 µM | 2.6 µM |  | 
27 | Nc1ncccc1-c1nc2ccc(-n3ccc(Oc4ccncc4)n3)nc2n1-c1ccc2c(c1)CC[C@@H]2NC1CCN(C(=O)C2CC2)CC1 [Compound 575] |  |  | 0.221 µM | 3.3 µM
28 | Cc1cnsc1C(=O)N[C@H]1CCc2cc(-n3c(-c4cccnc4N)nc4ccc(-n5cccn5)nc43)ccc21 [Compound 451] |  |  | 0.00814 µM | 0.198 µM
29 | CS(=O)(=O)c1ccn(-c2ccc3nc(-c4cccnc4N)n(-c4ccc5c(c4)CC[C@@H]5NC4CCN(C(=O)C5CC5)CC4)c3n2)n1 [Compound 554] |  |  | 0.339 µM | 9.26 µM
30 | Cc1cc(C(=O)N[C@H]2CCc3cc(-n4c(-c5cccnc5N)nc5ccc(-n6cccn6)nc54)ccc32)ccn1 [Compound 75] | 0.00599 µM | 0.0736 µM |  | 
31 | Nc1ncccc1-c1nc2ccc(-n3cccn3)nc2n1-c1ccc2c(c1)CC[C@@H]2NC(=O)c1cnc2c(c1)CC(=O)N2 [Compound 224] | 0.0321 µM | 0.342 µM |  | 
32 | Cc1ncncc1C(=O)N[C@H]1CCc2cc(-n3c(-c4cccnc4N)nc4ccc(-n5cccn5)nc43)ccc21 [Compound 117] | 0.00532 µM | 0.103 µM |  | 
33 | Cn1ccc(C#Cc2ncccc2C(=O)N[C@H]2CCc3cc(-n4c(-c5cccnc5N)nc5ccc(-n6cccn6)nc54)ccc32)n1 [Compound 181] | 0.0784 µM | 3.68 µM |  | 
34 | CN(C)C(=O)c1cc(C(=O)N[C@H]2CCc3cc(-n4c(-c5cccnc5N)nc5ccc(-n6cccn6)nc54)ccc32)ccc1O [Compound 414] |  |  | 0.0261 µM | 0.562 µM
